The results in this text go back to patent US9630956B2, “Compounds useful as inhibitors of ATR kinase” (Vertex Pharmaceuticals Incorporated, priority 2010, dated 2017).

For experiment [1], the system named is HCT116 colorectal cancer cells. The experiment is described as follows: Cisplatin Sensitization Assay (96h cell viability MTS). Format: cell-based. The conditions noted are these: concentration of compound required to reduce the IC50 of Cisplatin alone by at least 3-fold, 96h MTS. On the procedure:
Compounds can be screened for their ability to sensitize HCT116 colorectal cancer cells to Cisplatin using a 96h cell viability (MTS) assay. […] Compounds and Cisplatin are then both added simultaneously to the cell media in 2-fold serial dilutions from a top final concentration of 10 μM as a full matrix of concentrations in a final cell volume of 200 μl, and the cells are then incubated at 37° C. in 5% CO2. After 96h, 40 μl of […] (Promega G358a) is added to each well and the cells are incubated for 1 h at 37° C. in 5% CO2.

The target in another experiment is full-length ATR (Homo sapiens (Human), UniProt Q13535). The experiment is described as follows: ATR Inhibition Assay (radioactive-phosphate incorporation). The conditions noted are these: ATR Inhibition Ki(app); 10 μM ATP, 800 μM target peptide, 5 nM full-length ATR, 25° C. Format: biochemical. The gist of the method:
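Full-length ATR at 5 nM was run in 50 mM Tris/HCl pH 7.5, 10 mM MgCl2 and 1 mM DTT with 10 μM [γ-33P]ATP and 800 μM peptide at 25° C, after a 10 min compound pre-incubation (top final 15 μM, 3-fold dilutions, 7% DMSO). Reactions were stopped at 24 h and counted after phosphocellulose capture. Ki(app) came from non-linear regression of initial rates.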

Structures are written as SMILES. A value given as a limit tells only on which side of the number the result lay.

Sequence of full-length ATR (Q13535 whole entry): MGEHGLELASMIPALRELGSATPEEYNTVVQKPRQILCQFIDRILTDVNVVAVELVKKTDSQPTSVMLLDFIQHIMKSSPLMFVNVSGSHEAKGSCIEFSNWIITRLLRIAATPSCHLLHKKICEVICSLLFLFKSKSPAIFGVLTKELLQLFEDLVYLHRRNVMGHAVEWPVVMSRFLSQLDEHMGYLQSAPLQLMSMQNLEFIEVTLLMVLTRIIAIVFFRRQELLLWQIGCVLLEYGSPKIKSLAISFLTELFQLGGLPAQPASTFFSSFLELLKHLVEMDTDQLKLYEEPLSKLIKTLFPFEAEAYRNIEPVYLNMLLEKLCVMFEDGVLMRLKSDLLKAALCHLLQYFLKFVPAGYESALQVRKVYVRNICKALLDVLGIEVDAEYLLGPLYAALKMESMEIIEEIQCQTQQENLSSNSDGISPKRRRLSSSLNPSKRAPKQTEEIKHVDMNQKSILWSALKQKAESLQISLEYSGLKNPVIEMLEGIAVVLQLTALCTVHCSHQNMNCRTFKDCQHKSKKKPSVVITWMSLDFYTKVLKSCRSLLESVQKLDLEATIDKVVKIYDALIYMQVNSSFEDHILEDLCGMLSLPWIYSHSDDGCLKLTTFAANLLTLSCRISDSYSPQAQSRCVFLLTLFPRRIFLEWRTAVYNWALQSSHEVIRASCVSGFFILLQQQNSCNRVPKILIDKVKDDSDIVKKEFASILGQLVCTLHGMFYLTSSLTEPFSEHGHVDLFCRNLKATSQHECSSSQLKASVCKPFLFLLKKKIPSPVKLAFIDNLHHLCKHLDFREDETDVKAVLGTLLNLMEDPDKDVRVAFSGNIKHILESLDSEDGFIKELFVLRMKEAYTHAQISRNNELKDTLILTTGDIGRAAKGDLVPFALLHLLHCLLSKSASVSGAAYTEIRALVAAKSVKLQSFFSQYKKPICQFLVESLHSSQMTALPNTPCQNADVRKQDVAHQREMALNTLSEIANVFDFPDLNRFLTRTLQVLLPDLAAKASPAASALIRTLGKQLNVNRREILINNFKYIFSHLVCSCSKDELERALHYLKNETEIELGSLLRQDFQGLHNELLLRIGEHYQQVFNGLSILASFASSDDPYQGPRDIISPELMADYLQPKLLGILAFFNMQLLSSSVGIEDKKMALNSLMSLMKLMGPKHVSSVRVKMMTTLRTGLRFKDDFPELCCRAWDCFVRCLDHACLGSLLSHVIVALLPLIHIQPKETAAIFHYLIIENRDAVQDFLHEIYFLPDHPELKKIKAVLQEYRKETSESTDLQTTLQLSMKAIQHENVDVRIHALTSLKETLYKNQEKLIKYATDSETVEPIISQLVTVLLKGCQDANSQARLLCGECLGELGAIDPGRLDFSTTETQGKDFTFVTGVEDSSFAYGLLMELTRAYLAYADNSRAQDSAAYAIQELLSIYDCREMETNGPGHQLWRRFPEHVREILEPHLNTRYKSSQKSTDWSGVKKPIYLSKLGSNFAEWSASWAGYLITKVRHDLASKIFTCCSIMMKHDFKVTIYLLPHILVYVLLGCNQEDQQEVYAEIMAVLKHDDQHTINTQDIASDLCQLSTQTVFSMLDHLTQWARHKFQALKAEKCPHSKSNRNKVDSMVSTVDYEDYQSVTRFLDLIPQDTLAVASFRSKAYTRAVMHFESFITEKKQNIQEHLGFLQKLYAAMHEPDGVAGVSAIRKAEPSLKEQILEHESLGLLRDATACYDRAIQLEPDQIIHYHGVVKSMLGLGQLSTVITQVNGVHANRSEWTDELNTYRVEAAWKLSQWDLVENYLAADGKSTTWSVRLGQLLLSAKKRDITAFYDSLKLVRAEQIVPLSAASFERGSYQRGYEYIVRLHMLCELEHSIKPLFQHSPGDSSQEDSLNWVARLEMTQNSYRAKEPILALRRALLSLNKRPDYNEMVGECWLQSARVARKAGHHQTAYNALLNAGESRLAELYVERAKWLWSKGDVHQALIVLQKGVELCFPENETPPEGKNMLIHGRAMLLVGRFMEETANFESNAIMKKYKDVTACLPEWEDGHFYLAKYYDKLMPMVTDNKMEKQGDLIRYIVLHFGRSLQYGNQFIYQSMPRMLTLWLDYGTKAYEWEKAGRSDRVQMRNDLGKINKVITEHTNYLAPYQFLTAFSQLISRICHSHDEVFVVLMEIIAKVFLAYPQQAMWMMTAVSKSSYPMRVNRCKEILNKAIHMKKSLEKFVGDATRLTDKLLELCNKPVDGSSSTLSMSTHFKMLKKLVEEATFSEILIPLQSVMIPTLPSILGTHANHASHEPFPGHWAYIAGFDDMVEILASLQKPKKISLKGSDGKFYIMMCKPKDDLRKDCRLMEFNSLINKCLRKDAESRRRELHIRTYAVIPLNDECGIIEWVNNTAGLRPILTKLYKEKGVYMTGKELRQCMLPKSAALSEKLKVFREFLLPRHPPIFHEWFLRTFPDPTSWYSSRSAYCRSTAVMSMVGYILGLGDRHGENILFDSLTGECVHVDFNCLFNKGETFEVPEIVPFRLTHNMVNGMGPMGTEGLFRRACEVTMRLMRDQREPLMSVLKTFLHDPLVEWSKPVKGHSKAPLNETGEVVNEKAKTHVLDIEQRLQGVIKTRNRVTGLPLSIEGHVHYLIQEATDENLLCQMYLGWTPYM

For the compound `CCC(CC)n1cc(-c2cnc(N)c(-c3cc(-c4cccc(C(N)CF)c4)no3)n2)ccc1=O` (stereo not shown) [Compound I-131], the “CP3 shift” value in experiment [1] is 0.02 µM. In addition, the Ki on full-length ATR is at most 5 nM.
As to `CCC(CC)c1cc(-c2cnc(N)c(-c3cc(-c4ccc(CNC)cc4F)no3)n2)c[nH]c1=O` [Compound I-132], in experiment [1], the “CP3 shift” value amounted to 0.01 µM. For the same compound, the Ki at full-length ATR was at most 5 nM.
In the case of `CCC(N)c1cccc(-c2cc(-c3nc(-c4ccc(=O)n(C(CC)CC)c4)cnc3N)on2)c1` (stereo not shown) [Compound I-133], the “CP3 shift” value in experiment [1] stood at 0.039 µM. For the same compound, the Ki at full-length ATR was at most 5 nM.
The corresponding values for `CCC(C#N)(CC)n1cc(-c2cnc(N)c(-c3cc(-c4ccc(CNC)cc4)no3)n2)ccc1=O` [Compound I-134] are 0.02 µM and at most 5 nM.
Take `CCC(C#N)(CC)n1cc(-c2cnc(N)c(-c3cc(-c4cccc([C@@H](C)N)c4)no3)n2)ccc1=O` [Compound I-138]: in experiment [1], the “CP3 shift” value stood at 0.01 µM. Moreover, the Ki at full-length ATR is at most 5 nM.
In the same order, the values of `CCC(CC)n1cc(-c2cnc(N)c(-c3cc(-c4ccc(CNC5(C)CC5)cc4)no3)n2)ccc1=O` [Compound I-140] are 0.156 µM and at most 5 nM.
The corresponding values for `CNCc1ccc(-c2cc(-c3nc(-c4ccc(=O)n(C5(C#N)CCCC5)c4)cnc3N)on2)cc1` [Compound I-143] are 0.01 µM and at most 5 nM.
The corresponding values for `CC(C)(C#N)n1cc(-c2cnc(N)c(-c3cc(-c4ccc(CNC5CCOC5)cc4)no3)n2)ccc1=O` (stereo not shown) [Compound I-145] are 0.01 µM and at most 5 nM.
